Results published in PMC9571063 (Molecules, 2022).

Key:
Assay in all cases: KINOMEscan
[1] = biological target: T1, ABL1(F317I)-nonphosphorylated (Homo sapiens, UniProt P00519, F317I); assay type: binding; conditions: read-out: Percent Control
T1 construct: purchased Eurofins DiscoverX KINOMEscan (scanMAX 468)

[2] = biological target: T2, ABL1(H396P)-nonphosphorylated (Homo sapiens, UniProt P00519, H396P); assay type: binding; conditions: read-out: Percent Control
T2 construct: purchased Eurofins DiscoverX KINOMEscan (scanMAX 468)

ABL2 = biological target: T3, ABL2 (Homo sapiens, UniProt P42684); assay type: binding; conditions: read-out: Percent Control
T3 construct: purchased Eurofins DiscoverX KINOMEscan (scanMAX 468)

ADCK4 = biological target: T4, ADCK4 (Homo sapiens, UniProt Q96D53); assay type: binding; conditions: read-out: Percent Control
T4 construct: purchased Eurofins DiscoverX KINOMEscan (scanMAX 468)

AURKC = biological target: T5, AURKC (Homo sapiens, UniProt Q9UQB9); assay type: binding; conditions: read-out: Percent Control
T5 construct: purchased Eurofins DiscoverX KINOMEscan (scanMAX 468)

BIKE = biological target: T6, BIKE (Homo sapiens, UniProt Q9NSY1); assay type: binding; conditions: read-out: Percent Control
T6 construct: purchased Eurofins DiscoverX KINOMEscan (scanMAX 468)

CAMK2B = biological target: T7, CAMK2B (Homo sapiens, UniProt Q13554); assay type: binding; conditions: read-out: Percent Control
T7 construct: purchased Eurofins DiscoverX KINOMEscan (scanMAX 468)

CDC2L1 = biological target: T8, CDC2L1 (Homo sapiens, UniProt P21127); assay type: binding; conditions: read-out: Percent Control
T8 construct: purchased Eurofins DiscoverX KINOMEscan (scanMAX 468)

CIT = biological target: T9, CIT (Homo sapiens, UniProt O14578); assay type: binding; conditions: read-out: Percent Control
T9 construct: purchased Eurofins DiscoverX KINOMEscan (scanMAX 468)

CSNK1G3 = biological target: T10, CSNK1G3 (Homo sapiens, UniProt Q9Y6M4); assay type: binding; conditions: read-out: Percent Control
T10 construct: purchased Eurofins DiscoverX KINOMEscan (scanMAX 468)

DAPK3 = biological target: T11, DAPK3 (Homo sapiens, UniProt O43293); assay type: binding; conditions: read-out: Percent Control
T11 construct: purchased Eurofins DiscoverX KINOMEscan (scanMAX 468)

EGFR(E746-A750del) = biological target: T12, EGFR(E746-A750del) (Homo sapiens, UniProt P00533, DEL746-750); assay type: binding; conditions: read-out: Percent Control
T12 construct: purchased Eurofins DiscoverX KINOMEscan (scanMAX 468)

EPHA2 = biological target: T13, EPHA2 (Homo sapiens, UniProt P29317); assay type: binding; conditions: read-out: Percent Control
T13 construct: purchased Eurofins DiscoverX KINOMEscan (scanMAX 468)

ERBB2 = biological target: T14, ERBB2 (Homo sapiens, UniProt P04626); assay type: binding; conditions: read-out: Percent Control
T14 construct: purchased Eurofins DiscoverX KINOMEscan (scanMAX 468)

ERN1 = biological target: T15, ERN1 (Homo sapiens, UniProt O75460); assay type: binding; conditions: read-out: Percent Control
T15 construct: purchased Eurofins DiscoverX KINOMEscan (scanMAX 468)

FGFR2 = biological target: T16, FGFR2 (Homo sapiens, UniProt P21802); assay type: binding; conditions: read-out: Percent Control
T16 construct: purchased Eurofins DiscoverX KINOMEscan (scanMAX 468)

FGFR3(G697C) = biological target: T17, FGFR3(G697C) (Homo sapiens, UniProt P22607, G697C); assay type: binding; conditions: read-out: Percent Control
T17 construct: purchased Eurofins DiscoverX KINOMEscan (scanMAX 468)

FLT3(ITD,D835V) = assay type: binding, human; conditions: 1 μM
FLT3-autoinhibited = biological target: T18, FLT3-autoinhibited (Homo sapiens, UniProt P36888); assay type: binding; conditions: read-out: Percent Control
T18 construct: purchased Eurofins DiscoverX KINOMEscan (scanMAX 468)

HUNK = biological target: T19, HUNK (Homo sapiens, UniProt P57058); assay type: binding; conditions: read-out: Percent Control
T19 construct: purchased Eurofins DiscoverX KINOMEscan (scanMAX 468)

IRAK1 = biological target: T20, IRAK1 (Homo sapiens, UniProt P51617); assay type: binding; conditions: read-out: Percent Control
T20 construct: purchased Eurofins DiscoverX KINOMEscan (scanMAX 468)

[3] = biological target: T21, JAK1(JH1domain-catalytic) (Homo sapiens, UniProt P23458); assay type: binding; conditions: read-out: Percent Control
T21 construct: JAK1(JH1domain-catalytic); purchased Eurofins DiscoverX KINOMEscan (scanMAX 468)

KIT(V559D,V654A) = biological target: T22, KIT(V559D,V654A) (Homo sapiens, UniProt P10721, V559D/V654A); assay type: binding; conditions: read-out: Percent Control
T22 construct: purchased Eurofins DiscoverX KINOMEscan (scanMAX 468)

LIMK2 = biological target: T23, LIMK2 (Homo sapiens, UniProt P53671); assay type: binding; conditions: read-out: Percent Control
T23 construct: purchased Eurofins DiscoverX KINOMEscan (scanMAX 468)

MAP3K15 = biological target: T24, MAP3K15 (Homo sapiens, UniProt Q6ZN16); assay type: binding; conditions: read-out: Percent Control
T24 construct: purchased Eurofins DiscoverX KINOMEscan (scanMAX 468)

MEK1 = biological target: T25, MEK1 (Homo sapiens, UniProt Q02750); assay type: binding; conditions: read-out: Percent Control
T25 construct: purchased Eurofins DiscoverX KINOMEscan (scanMAX 468)

MEK3 = biological target: T26, MEK3 (Homo sapiens, UniProt P46734); assay type: binding; conditions: read-out: Percent Control
T26 construct: purchased Eurofins DiscoverX KINOMEscan (scanMAX 468)

MEK5 = biological target: T27, MEK5 (Homo sapiens, UniProt Q13163); assay type: binding; conditions: read-out: Percent Control
T27 construct: purchased Eurofins DiscoverX KINOMEscan (scanMAX 468)

MINK = biological target: T28, MINK (Homo sapiens, UniProt Q8N4C8); assay type: binding; conditions: read-out: Percent Control
T28 construct: purchased Eurofins DiscoverX KINOMEscan (scanMAX 468)

MKK7 = biological target: T29, MKK7 (Homo sapiens, UniProt O14733); assay type: binding; conditions: read-out: Percent Control
T29 construct: purchased Eurofins DiscoverX KINOMEscan (scanMAX 468)

MKNK2 = biological target: T30, MKNK2 (Homo sapiens, UniProt Q9HBH9); assay type: binding; conditions: read-out: Percent Control
T30 construct: purchased Eurofins DiscoverX KINOMEscan (scanMAX 468)

MLK1 = biological target: T31, MLK1 (Homo sapiens, UniProt P80192); assay type: binding; conditions: read-out: Percent Control
T31 construct: purchased Eurofins DiscoverX KINOMEscan (scanMAX 468)

MST3 = biological target: T32, MST3 (Homo sapiens, UniProt Q9Y6E0); assay type: binding; conditions: read-out: Percent Control
T32 construct: purchased Eurofins DiscoverX KINOMEscan (scanMAX 468)

MST4 = biological target: T33, MST4 (Homo sapiens, UniProt Q9P289); assay type: binding; conditions: read-out: Percent Control
T33 construct: purchased Eurofins DiscoverX KINOMEscan (scanMAX 468)

NIK = biological target: T34, NIK (Homo sapiens, UniProt Q99558); assay type: binding; conditions: read-out: Percent Control
T34 construct: purchased Eurofins DiscoverX KINOMEscan (scanMAX 468)

PCTK1 = biological target: T35, PCTK1 (Homo sapiens, UniProt Q00536); assay type: binding; conditions: read-out: Percent Control
T35 construct: purchased Eurofins DiscoverX KINOMEscan (scanMAX 468)

PIK3CD = biological target: T36, PIK3CD (Homo sapiens, UniProt O00329); assay type: binding; conditions: read-out: Percent Control
T36 construct: purchased Eurofins DiscoverX KINOMEscan (scanMAX 468)

PLK2 = biological target: T37, PLK2 (Homo sapiens, UniProt Q9NYY3); assay type: binding; conditions: read-out: Percent Control
T37 construct: purchased Eurofins DiscoverX KINOMEscan (scanMAX 468)

ROS1 = biological target: T38, ROS1 (Homo sapiens, UniProt P08922); assay type: binding; conditions: read-out: Percent Control
T38 construct: purchased Eurofins DiscoverX KINOMEscan (scanMAX 468)

SYK = biological target: T39, SYK (Homo sapiens, UniProt P43405); assay type: binding; conditions: read-out: Percent Control
T39 construct: purchased Eurofins DiscoverX KINOMEscan (scanMAX 468)

TRKB = biological target: T40, TRKB (Homo sapiens, UniProt Q16620); assay type: binding; conditions: read-out: Percent Control
T40 construct: purchased Eurofins DiscoverX KINOMEscan (scanMAX 468)

TYRO3 = biological target: T41, TYRO3 (Homo sapiens, UniProt Q06418); assay type: binding; conditions: read-out: Percent Control
T41 construct: purchased Eurofins DiscoverX KINOMEscan (scanMAX 468)

ULK2 = biological target: T42, ULK2 (Homo sapiens, UniProt Q8IYT8); assay type: binding; conditions: read-out: Percent Control
T42 construct: purchased Eurofins DiscoverX KINOMEscan (scanMAX 468)

T5 sequence (Q9UQB9 whole entry): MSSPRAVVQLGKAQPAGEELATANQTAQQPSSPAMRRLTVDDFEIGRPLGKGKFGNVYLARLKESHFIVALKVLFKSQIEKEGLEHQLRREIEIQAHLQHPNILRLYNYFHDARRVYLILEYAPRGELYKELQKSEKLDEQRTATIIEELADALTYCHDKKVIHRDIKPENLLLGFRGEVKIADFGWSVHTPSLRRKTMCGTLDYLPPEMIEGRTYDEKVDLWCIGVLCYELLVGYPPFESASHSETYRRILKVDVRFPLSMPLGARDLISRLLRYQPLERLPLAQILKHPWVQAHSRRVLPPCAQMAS
T28 sequence (Q8N4C8 whole entry): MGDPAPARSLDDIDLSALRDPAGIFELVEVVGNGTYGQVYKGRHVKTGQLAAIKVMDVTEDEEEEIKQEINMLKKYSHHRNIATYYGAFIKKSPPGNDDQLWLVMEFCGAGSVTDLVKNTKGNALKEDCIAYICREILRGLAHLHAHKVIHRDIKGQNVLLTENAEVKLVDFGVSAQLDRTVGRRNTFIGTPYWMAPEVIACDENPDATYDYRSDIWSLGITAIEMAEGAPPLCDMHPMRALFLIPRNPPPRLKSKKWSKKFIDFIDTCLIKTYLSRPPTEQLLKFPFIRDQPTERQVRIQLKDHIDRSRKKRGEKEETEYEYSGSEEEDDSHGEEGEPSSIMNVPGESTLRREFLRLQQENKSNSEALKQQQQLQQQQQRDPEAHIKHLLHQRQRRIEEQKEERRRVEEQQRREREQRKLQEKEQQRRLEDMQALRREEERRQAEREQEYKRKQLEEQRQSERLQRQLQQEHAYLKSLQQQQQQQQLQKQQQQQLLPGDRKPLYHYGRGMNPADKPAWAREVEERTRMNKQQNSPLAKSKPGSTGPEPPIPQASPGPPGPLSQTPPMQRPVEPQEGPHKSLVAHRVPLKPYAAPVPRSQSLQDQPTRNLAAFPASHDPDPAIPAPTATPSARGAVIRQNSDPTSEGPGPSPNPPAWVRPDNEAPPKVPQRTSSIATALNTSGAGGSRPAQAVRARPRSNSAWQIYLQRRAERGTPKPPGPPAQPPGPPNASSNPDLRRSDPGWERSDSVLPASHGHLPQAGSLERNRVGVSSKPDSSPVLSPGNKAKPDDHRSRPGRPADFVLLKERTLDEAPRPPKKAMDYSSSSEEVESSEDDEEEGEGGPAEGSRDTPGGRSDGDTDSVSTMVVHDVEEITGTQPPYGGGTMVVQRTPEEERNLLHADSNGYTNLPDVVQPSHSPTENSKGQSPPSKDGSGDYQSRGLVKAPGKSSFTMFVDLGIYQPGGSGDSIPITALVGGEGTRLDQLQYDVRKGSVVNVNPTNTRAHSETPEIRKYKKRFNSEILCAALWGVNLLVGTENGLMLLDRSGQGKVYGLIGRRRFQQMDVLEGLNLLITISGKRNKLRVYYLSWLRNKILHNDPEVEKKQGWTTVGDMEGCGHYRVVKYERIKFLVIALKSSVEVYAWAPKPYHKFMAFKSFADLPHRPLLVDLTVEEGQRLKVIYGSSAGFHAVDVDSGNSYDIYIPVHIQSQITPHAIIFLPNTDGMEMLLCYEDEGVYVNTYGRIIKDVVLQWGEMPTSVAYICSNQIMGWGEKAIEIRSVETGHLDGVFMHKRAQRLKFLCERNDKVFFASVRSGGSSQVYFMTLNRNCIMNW
T13 sequence (P29317 24-976): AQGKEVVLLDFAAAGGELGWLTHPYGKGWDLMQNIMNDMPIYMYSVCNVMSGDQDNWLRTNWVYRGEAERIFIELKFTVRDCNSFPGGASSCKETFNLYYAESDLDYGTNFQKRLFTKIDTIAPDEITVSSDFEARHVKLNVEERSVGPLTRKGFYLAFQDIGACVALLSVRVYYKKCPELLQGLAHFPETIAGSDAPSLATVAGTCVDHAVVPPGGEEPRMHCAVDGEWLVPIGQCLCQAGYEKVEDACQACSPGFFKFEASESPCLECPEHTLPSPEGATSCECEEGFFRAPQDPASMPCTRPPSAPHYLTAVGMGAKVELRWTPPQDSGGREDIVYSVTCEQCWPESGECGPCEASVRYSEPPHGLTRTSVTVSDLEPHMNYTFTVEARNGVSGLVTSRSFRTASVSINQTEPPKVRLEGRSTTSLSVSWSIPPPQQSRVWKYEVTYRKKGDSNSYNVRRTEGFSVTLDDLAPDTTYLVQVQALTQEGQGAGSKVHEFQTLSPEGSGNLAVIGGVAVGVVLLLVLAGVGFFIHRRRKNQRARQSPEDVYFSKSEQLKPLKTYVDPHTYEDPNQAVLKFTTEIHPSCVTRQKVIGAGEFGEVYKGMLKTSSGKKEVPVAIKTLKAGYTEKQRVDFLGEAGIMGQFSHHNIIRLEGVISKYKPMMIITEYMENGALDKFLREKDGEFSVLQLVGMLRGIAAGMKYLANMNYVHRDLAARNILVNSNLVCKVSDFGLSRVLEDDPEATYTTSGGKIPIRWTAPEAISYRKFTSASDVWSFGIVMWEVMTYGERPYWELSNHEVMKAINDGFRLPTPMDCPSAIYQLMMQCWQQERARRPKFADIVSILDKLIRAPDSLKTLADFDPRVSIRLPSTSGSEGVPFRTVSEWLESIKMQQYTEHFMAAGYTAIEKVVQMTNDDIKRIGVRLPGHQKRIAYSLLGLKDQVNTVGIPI
T21 sequence (P23458 865-1154 limits assumed): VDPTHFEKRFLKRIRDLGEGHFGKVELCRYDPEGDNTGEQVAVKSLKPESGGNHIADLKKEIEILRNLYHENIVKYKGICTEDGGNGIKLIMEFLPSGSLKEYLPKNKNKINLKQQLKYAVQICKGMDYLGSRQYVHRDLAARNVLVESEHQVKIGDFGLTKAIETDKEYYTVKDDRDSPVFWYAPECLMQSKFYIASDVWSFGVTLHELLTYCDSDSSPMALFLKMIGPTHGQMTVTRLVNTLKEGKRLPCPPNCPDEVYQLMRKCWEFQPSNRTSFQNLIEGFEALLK
T22 sequence (P10721 26-976 V559D/V654A): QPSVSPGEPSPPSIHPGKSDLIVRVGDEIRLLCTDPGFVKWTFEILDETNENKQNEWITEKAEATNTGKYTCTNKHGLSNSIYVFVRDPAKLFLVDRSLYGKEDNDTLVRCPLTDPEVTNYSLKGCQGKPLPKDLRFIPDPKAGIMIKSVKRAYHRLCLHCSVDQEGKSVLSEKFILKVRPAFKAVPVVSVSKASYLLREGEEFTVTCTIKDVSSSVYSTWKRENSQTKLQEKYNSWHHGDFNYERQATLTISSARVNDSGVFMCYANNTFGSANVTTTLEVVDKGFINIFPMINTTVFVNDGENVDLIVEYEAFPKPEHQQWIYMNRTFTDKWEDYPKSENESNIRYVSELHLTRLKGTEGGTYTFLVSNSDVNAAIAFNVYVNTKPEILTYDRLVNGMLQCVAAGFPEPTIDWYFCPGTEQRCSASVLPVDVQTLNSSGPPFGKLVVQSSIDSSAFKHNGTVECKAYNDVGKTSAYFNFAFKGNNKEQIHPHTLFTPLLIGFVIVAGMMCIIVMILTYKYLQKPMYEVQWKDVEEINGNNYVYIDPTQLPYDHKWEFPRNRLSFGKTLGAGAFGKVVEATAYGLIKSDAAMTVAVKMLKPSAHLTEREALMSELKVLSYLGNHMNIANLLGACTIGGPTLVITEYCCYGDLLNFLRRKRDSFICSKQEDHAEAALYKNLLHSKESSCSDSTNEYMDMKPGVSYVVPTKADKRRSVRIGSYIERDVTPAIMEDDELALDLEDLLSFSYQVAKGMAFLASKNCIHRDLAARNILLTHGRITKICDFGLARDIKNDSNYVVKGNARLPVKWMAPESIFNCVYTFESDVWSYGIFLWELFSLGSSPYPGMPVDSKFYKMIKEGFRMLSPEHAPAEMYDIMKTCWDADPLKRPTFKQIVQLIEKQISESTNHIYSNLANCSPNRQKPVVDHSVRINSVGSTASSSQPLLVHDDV
T16 sequence (P21802 22-821): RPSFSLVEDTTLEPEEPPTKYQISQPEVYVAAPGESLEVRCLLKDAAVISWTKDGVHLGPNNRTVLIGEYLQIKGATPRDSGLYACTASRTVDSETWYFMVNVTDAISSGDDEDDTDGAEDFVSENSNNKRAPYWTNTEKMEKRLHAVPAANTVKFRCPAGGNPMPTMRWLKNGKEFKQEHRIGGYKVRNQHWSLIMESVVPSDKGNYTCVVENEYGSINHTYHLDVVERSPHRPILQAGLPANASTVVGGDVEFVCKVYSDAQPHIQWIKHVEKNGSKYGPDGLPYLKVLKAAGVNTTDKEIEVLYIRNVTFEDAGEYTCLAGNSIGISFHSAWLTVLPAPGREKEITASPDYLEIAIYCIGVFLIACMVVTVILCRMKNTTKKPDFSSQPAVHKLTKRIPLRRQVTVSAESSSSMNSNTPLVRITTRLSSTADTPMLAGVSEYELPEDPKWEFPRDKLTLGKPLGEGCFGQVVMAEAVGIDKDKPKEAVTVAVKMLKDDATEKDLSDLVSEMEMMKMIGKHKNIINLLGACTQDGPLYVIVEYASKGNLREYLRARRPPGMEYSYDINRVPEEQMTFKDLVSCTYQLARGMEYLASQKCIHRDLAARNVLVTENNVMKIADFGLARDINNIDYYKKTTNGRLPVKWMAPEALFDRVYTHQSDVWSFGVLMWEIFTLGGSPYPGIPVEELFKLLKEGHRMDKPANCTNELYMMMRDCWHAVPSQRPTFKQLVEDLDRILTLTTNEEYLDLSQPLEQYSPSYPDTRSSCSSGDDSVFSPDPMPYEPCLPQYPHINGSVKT
T18 sequence (P36888 564-993 limits assumed): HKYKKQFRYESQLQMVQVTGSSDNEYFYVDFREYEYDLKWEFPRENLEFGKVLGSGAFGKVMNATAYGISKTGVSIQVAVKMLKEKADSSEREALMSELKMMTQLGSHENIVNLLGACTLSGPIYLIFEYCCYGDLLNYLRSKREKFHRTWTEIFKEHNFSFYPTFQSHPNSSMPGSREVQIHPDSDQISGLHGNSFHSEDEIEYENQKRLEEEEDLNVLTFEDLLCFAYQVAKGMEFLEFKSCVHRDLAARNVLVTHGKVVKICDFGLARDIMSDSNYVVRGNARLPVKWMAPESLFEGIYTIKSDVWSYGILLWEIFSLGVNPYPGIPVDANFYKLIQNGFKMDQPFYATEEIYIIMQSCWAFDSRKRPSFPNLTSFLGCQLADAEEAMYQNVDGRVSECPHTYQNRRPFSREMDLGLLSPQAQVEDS

Structure (SMILES): Cc1ccc(-n2cc(COc3cccc4cnc(Nc5cccc(Cl)c5)nc34)nn2)c([N+](=O)[O-])c1 [DB18]
- remaining binding at 1 µM [1]: 100%
- remaining binding at 1 µM [2]: 96%
- remaining binding at 1 µM (ABL2): 100%
- remaining binding at 1 µM (ADCK4): 100%
- remaining binding at 1 µM (AURKC): 100%
- remaining binding at 1 µM (BIKE): 99%
- remaining binding at 1 µM (CAMK2B): 100%
- remaining binding at 1 µM (CDC2L1): 100%
- remaining binding at 1 µM (CIT): 100%
- remaining binding at 1 µM (CSNK1G3): 100%
- remaining binding at 1 µM (DAPK3): 98%
- remaining binding at 1 µM (EGFR(E746-A750del)): 82%
- remaining binding at 1 µM (EPHA2): 100%
- remaining binding at 1 µM (ERBB2): 57%
- remaining binding at 1 µM (ERN1): 94%
- remaining binding at 1 µM (FGFR2): 100%
- remaining binding at 1 µM (FGFR3(G697C)): 97%
- Percent Control (FLT3(ITD,D835V)): 53 % Ctrl
- remaining binding at 1 µM (FLT3-autoinhibited): 100%
- remaining binding at 1 µM (HUNK): 90%
- remaining binding at 1 µM (IRAK1): 100%
- remaining binding at 1 µM [3]: 100%
- remaining binding at 1 µM (KIT(V559D,V654A)): 100%
- remaining binding at 1 µM (LIMK2): 100%
- remaining binding at 1 µM (MAP3K15): 93%
- remaining binding at 1 µM (MEK1): 97%
- remaining binding at 1 µM (MEK3): 98%
- remaining binding at 1 µM (MEK5): 95%
- remaining binding at 1 µM (MINK): 95%
- remaining binding at 1 µM (MKK7): 100%
- remaining binding at 1 µM (MKNK2): 100%
- remaining binding at 1 µM (MLK1): 100%
- remaining binding at 1 µM (MST3): 100%
- remaining binding at 1 µM (MST4): 97%
- remaining binding at 1 µM (NIK): 86%
- remaining binding at 1 µM (PCTK1): 94%
- remaining binding at 1 µM (PIK3CD): 100%
- remaining binding at 1 µM (PLK2): 100%
- remaining binding at 1 µM (ROS1): 100%
- remaining binding at 1 µM (SYK): 97%
- remaining binding at 1 µM (TRKB): 86%
- remaining binding at 1 µM (TYRO3): 100%
- remaining binding at 1 µM (ULK2): 100%
